Strand notation (5' to 3'): a small letter for the sugar, then the base; units joined by * are phosphorothioate-linked, units joined directly phosphodiester-linked; [ ] holds rarer units or linkages, { } end groups; capitals alone tell only the bases. [ms] = mesyl phosphoramidate linkage; e = 2'-O-(2-methoxyethyl) (MOE); k = constrained ethyl (cEt); [5mC] = 5-methylcytosine; d = 2'-deoxy (DNA)
Legend:
human APOE RNA [1] = assay: Activity in APOE C57BL/6NTac-Apoeem7250 knock-in mice, single ICV bolus, 16 weeks (Example 12); assay type: in vivo; conditions: single ICV bolus 300 μg, 16 weeks post treatment, normalized to mouse Ppia
Experimental: Modified oligonucleotides described above were tested in the APOE C57BL/6NTac-Apoeem7250 knock-in mouse model described above.
APOE C57BL/6NTac-Apoeem7250 knock-in mice were divided into groups of 3-4 mice each. Each mouse received a single intracerebroventricular (ICV) bolus of 300 μg of modified oligonucleotide. A group of 4 mice received a single ICV bolus with PBS as a negative control.
Sixteen weeks post treatment, mice were sacrificed and RNA was extracted from cortical brain tissue and spinal cord for quantitative real-time RT-PCR analysis of RNA expression of APOE using primer probe set RTS3073 (described herein above). APOE RNA levels were normalized to mouse Ppia. Mouse Ppia was amplified using primer probe set m_cyclo24 (described herein above). Results are presented as percent human APOE RNA relative to the amount of human APOE RNA in PBS treated animals, (% control). Each experiment is identified in separate tables below.

human APOE RNA [2] = assay: Dose-dependent inhibition of human APOE RNA in HepG2 cells, electroporation, 24 hours (Example 6); assay type: cell-based
Experimental: Modified oligonucleotides selected from the examples above were tested at various doses in HepG2.
HepG2 cells plated at a density of 50,000 cells per well were treated by electroporation with various concentrations of modified oligonucleotide as specified in the tables below. […] APOE RNA levels were measured using the human primer probe set RTS3073 (described herein above). APOE RNA levels were normalized to human GAPDH. Human GAPDH was amplified using human primer probe set RTS 104 (described herein above). Results are presented as percent APOE RNA, relative to the amount of APOE RNA in untreated control cells (% UTC). The half maximal inhibitory concentration (IC50) of each modified oligonucleotide was calculated in GraphPad Prism 10 (GraphPad Software, San Diego, CA) and is also presented in the tables below.

Substance	APOE RNA (% control) Cortex (human APOE RNA [1]) [% control]	APOE RNA (% control) Spinal Cord (human APOE RNA [1]) [% control]	further results
1693073: 5-10-5 MOE gapmer ACTTGGTGAATCTTTATTAA, linkages sssossszzzzzsssssss (eA*e[5mC]*eT*eTeG*dG*dT*dG[ms]dA[ms]dA[ms]dT[ms]d[5mC][ms]dT*dT*dT*eA*eT*eT*eA*eA) [compound 1693073]	107	52	–
1693110: 6-10-4 MOE gapmer CTTGGTGAATCTTTATTAAA, linkages sssssszzzsssszzssss (e[5mC]*eT*eT*eG*eG*eT*dG[ms]dA[ms]dA[ms]dT*d[5mC]*dT*dT*dT[ms]dA[ms]dT*eT*eA*eA*eA) [compound 1693110]	113	92	–
1693071: 5-10-5 MOE gapmer ACTTGGTGAATCTTTATTAA, linkages ssssssszzzzzsssosss (antisense eA*e[5mC]*eT*eT*eG*dG*dT*dG[ms]dA[ms]dA[ms]dT[ms]d[5mC][ms]dT*dT*dT*eAeT*eT*eA*eA) [compound 1693071]	68	66	–
1693063: 5-10-5 MOE gapmer TTGGTGAATCTTTATTAAAC, linkages ssssszzzsssszzsssss (antisense eT*eT*eG*eG*eT*dG[ms]dA[ms]dA[ms]dT*d[5mC]*dT*dT*dT[ms]dA[ms]dT*eT*eA*eA*eA*e[5mC]) [compound 1693063]	97	87	–
1693075: 5-10-5 MOE gapmer ACTTGGTGAATCTTTATTAA, linkages ssssssszzzzzsssssss (eA*e[5mC]*eT*eT*eG*dG*dT*dG[ms]dA[ms]dA[ms]dT[ms]d[5mC][ms]dT*dT*dT*eA*eT*eT*eA*eA) [compound 1693075]	87	64	–
1693142: 6-10-4 MOE gapmer ACTTGGTGAATCTTTATTAA, linkages sssoosszzzssssszsss (eA*e[5mC]*eT*eTeGeG*dT*dG[ms]dA[ms]dA[ms]dT*d[5mC]*dT*dT*dT*dA[ms]eT*eT*eA*eA) [compound 1693142]	98	92	–
1693103: 6-10-4 MOE gapmer CTTGGTGAATCTTTATTAAA, linkages sssosszzzssssszssss (e[5mC]*eT*eT*eGeG*eT*dG[ms]dA[ms]dA[ms]dT*d[5mC]*dT*dT*dT*dA[ms]dT*eT*eA*eA*eA) [compound 1693103]	84	56	–
1693080: 6-10-4 MOE gapmer TTGGTGAATCTTTATTAAAC, linkages ssssoszzszssszssoss (eT*eT*eG*eG*eTeG*dA[ms]dA[ms]dT*d[5mC][ms]dT*dT*dT*dA[ms]dT*dT*eAeA*eA*e[5mC]) [compound 1693080]	99	88	–
1693100: 6-10-4 MOE gapmer CTTGGTGAATCTTTATTAAA, linkages sssssszzzssssszsoss (e[5mC]*eT*eT*eG*eG*eT*dG[ms]dA[ms]dA[ms]dT*d[5mC]*dT*dT*dT*dA[ms]dT*eTeA*eA*eA) [compound 1693100]	87	51	–
1693053: 5-10-5 MOE gapmer TTGGTGAATCTTTATTAAAC, linkages ssssszzzsssssssosss (antisense eT*eT*eG*eG*eT*dG[ms]dA[ms]dA[ms]dT*d[5mC]*dT*dT*dT*dA*dT*eTeA*eA*eA*e[5mC]) [compound 1693053]	99	99	–
1693072: 5-10-5 MOE gapmer ACTTGGTGAATCTTTATTAA, linkages ssssosszzzzzsssssss (eA*e[5mC]*eT*eT*eGdG*dT*dG[ms]dA[ms]dA[ms]dT[ms]d[5mC][ms]dT*dT*dT*eA*eT*eT*eA*eA) [compound 1693072]	82	61	–
1693077: 6-10-4 MOE gapmer TTGGTGAATCTTTATTAAAC, linkages sosssszzszssszssoss (eT*eTeG*eG*eT*eG*dA[ms]dA[ms]dT*d[5mC][ms]dT*dT*dT*dA[ms]dT*dT*eAeA*eA*e[5mC]) [compound 1693077]	98	76	–
1693138: 6-10-4 MOE gapmer CTTGGTGAATCTTTATTAAA, linkages sssssozzzsssszzsoss (e[5mC]*eT*eT*eG*eG*eTdG[ms]dA[ms]dA[ms]dT*d[5mC]*dT*dT*dT[ms]dA[ms]dT*eTeA*eA*eA) [compound 1693138]	90	85	–
1693065: 5-10-5 MOE gapmer ACTTGGTGAATCTTTATTAA, linkages soossssszzsssssssss (antisense eA*e[5mC]eTeT*eG*dG*dT*dG*dA[ms]dA[ms]dT*d[5mC]*dT*dT*dT*eA*eT*eT*eA*eA) [compound 1693065]	82	46	–
1693060: 5-10-5 MOE gapmer TTGGTGAATCTTTATTAAAC, linkages ssssszzzsssszzsosss (antisense eT*eT*eG*eG*eT*dG[ms]dA[ms]dA[ms]dT*d[5mC]*dT*dT*dT[ms]dA[ms]dT*eTeA*eA*eA*e[5mC]) [compound 1693060]	93	93	–
1693069: 5-10-5 MOE gapmer ACTTGGTGAATCTTTATTAA, linkages ssssosszzzszsssssss (antisense eA*e[5mC]*eT*eT*eGdG*dT*dG[ms]dA[ms]dA[ms]dT*d[5mC][ms]dT*dT*dT*eA*eT*eT*eA*eA) [compound 1693069]	78	66	–
1693062: 5-10-5 MOE gapmer TTGGTGAATCTTTATTAAAC, linkages ssssozzzsssszzsssss (antisense eT*eT*eG*eG*eTdG[ms]dA[ms]dA[ms]dT*d[5mC]*dT*dT*dT[ms]dA[ms]dT*eT*eA*eA*eA*e[5mC]) [compound 1693062]	98	110	–
1693074: 5-10-5 MOE gapmer ACTTGGTGAATCTTTATTAA, linkages ssosssszzzzzsssssss (eA*e[5mC]*eTeT*eG*dG*dT*dG[ms]dA[ms]dA[ms]dT[ms]d[5mC][ms]dT*dT*dT*eA*eT*eT*eA*eA) [compound 1693074]	84	71	–
1693061: 5-10-5 MOE gapmer TTGGTGAATCTTTATTAAAC, linkages sssoszzzsssszzsssss (antisense eT*eT*eG*eGeT*dG[ms]dA[ms]dA[ms]dT*d[5mC]*dT*dT*dT[ms]dA[ms]dT*eT*eA*eA*eA*e[5mC]) [compound 1693061]	91	99	–
1693068: 5-10-5 MOE gapmer ACTTGGTGAATCTTTATTAA, linkages sssossszzzszsssssss (antisense eA*e[5mC]*eT*eTeG*dG*dT*dG[ms]dA[ms]dA[ms]dT*d[5mC][ms]dT*dT*dT*eA*eT*eT*eA*eA) [compound 1693068]	86	72	–
1693058: 5-10-5 MOE gapmer TTGGTGAATCTTTATTAAAC, linkages sssoszzzssssszsosss (antisense eT*eT*eG*eGeT*dG[ms]dA[ms]dA[ms]dT*d[5mC]*dT*dT*dT*dA[ms]dT*eTeA*eA*eA*e[5mC]) [compound 1693058]	113	80	–
1736517 (e[5mC]*eTeTeG*kG*kT*dG[ms]dA[ms]dA[ms]dT*d[5mC]*dT*dT*dT*dA[ms]dT*eT*eA*eA*eA; antisense) [Compound 1736517]	–	–	IC50 (human APOE RNA [2]): 470 nM; APOE RNA (% UTC) (human APOE RNA [2]; 5 nM): 106 % UTC; APOE RNA (% UTC) (human APOE RNA [2]; 13 nM): 92 % UTC; APOE RNA (% UTC) (human APOE RNA [2]; 33 nM): 94 % UTC; APOE RNA (% UTC) (human APOE RNA [2]; 82 nM): 84 % UTC; APOE RNA (% UTC) (human APOE RNA [2]; 205 nM): 57 % UTC; APOE RNA (% UTC) (human APOE RNA [2]; 512 nM): 42 % UTC; APOE RNA (% UTC) (human APOE RNA [2]; 1,280 nM): 35 % UTC; APOE RNA (% UTC) (human APOE RNA [2]; 3,200 nM): 22 % UTC; APOE RNA (% UTC) (human APOE RNA [2]; 8,000 nM): 13 % UTC; APOE RNA (% UTC) (human APOE RNA [2]; 20,000 nM): 10 % UTC
1736516 (e[5mC]*eTeTeG*eG*kT*dG[ms]dA[ms]dA[ms]dT*d[5mC]*dT*dT*dT*dA[ms]dT*eT*eA*eA*eA; antisense) [Compound 1736516]	–	–	IC50 (human APOE RNA [2]): 1140 nM; APOE RNA (% UTC) (human APOE RNA [2]; 5 nM): 106 % UTC; APOE RNA (% UTC) (human APOE RNA [2]; 13 nM): 110 % UTC; APOE RNA (% UTC) (human APOE RNA [2]; 33 nM): 121 % UTC; APOE RNA (% UTC) (human APOE RNA [2]; 82 nM): 117 % UTC; APOE RNA (% UTC) (human APOE RNA [2]; 205 nM): 58 % UTC; APOE RNA (% UTC) (human APOE RNA [2]; 512 nM): 59 % UTC; APOE RNA (% UTC) (human APOE RNA [2]; 1,280 nM): 39 % UTC; APOE RNA (% UTC) (human APOE RNA [2]; 3,200 nM): 29 % UTC; APOE RNA (% UTC) (human APOE RNA [2]; 8,000 nM): 32 % UTC; APOE RNA (% UTC) (human APOE RNA [2]; 20,000 nM): 22 % UTC

— patent publication US20250353873A1, “COMPOUNDS AND METHODS FOR MODULATING APOE EXPRESSION” (Ionis Pharmaceuticals, Inc., priority 2024, published 2025)
